Results taken from PMC8509773, “3-Pyridinylidene Derivatives of Chemically Modified Lupane and Ursane Triterpenes as Promising Anticancer Agents by Targeting Apoptosis” (International Journal of Molecular Sciences, 2021).

How the values were obtained:
Experiment in all cases: NCI-60 SRB screening (one-dose and five-dose)
Assay type in all cases: cell-based, human
SF-295 = conditions: SF-295, 10 μM, 48 h
Description: (§1) The compounds were added at a single concentration and the cell cultures were incubated for 48 h. The end point determinations were made with a protein binding dye, sulforhodamine B (SRB). […] The percentage of growth was evaluated spectrophotometrically versus controls not treated with test agents after 48-h exposure and using SRB protein assay to estimate cell viability or growth. […] Furthermore, mean graph midpoints (MG_MID) were calculated for each of the parameters, giving an average activity parameter over all cell lines for the tested compound. For the MG_MID calculation, insensitive cell lines were included with the highest concentration tested.

HOP-62 = conditions: HOP-62, 10 μM, 48 h
Description: as §1

COLO 205 = conditions: COLO 205, 10 μM, 48 h
Description: as §1

DU-145 = conditions: DU-145, 10 μM, 48 h
Description: as §1

MALME-3M = conditions: 10 μM, 48 h
Description: as §1

MDA-MB-435 = conditions: MDA-MB-435, 10 μM, 48 h
Description: as §1

SW-620 = conditions: SW-620, 10 μM, 48 h
Description: as §1

U251 = conditions: U251, 10 μM, 48 h
Description: as §1

HL-60(TB) = conditions: 10 μM, 48 h
Description: as §1

SNB-19 = conditions: SNB-19, 10 μM, 48 h
Description: as §1

UACC-257 = conditions: UACC-257, 10 μM, 48 h
Description: as §1

SF-539 = conditions: SF-539, 10 μM, 48 h
Description: as §1

RXF 393 = conditions: RXF 393, 10 μM, 48 h
Description: as §1

HCC-2998 = conditions: HCC-2998, 10 μM, 48 h
Description: as §1

SK-MEL-28 = conditions: SK-MEL-28, 10 μM, 48 h
Description: as §1

RPMI-8226 = conditions: RPMI-8226, 10 μM, 48 h
Description: as §1

MOLT-4 = conditions: MOLT-4, 10 μM, 48 h
Description: as §1

OVCAR-4 = conditions: OVCAR-4, 10 μM, 48 h
Description: as §1

PC-3 = conditions: PC-3, 10 μM, 48 h
Description: as §1

EKVX = conditions: 10 μM, 48 h
Description: as §1

T-47D = conditions: T-47D, 10 μM, 48 h
Description: as §1

OVCAR-8 = conditions: OVCAR-8, 10 μM, 48 h
Description: as §1

A549/ATCC = conditions: 10 μM, 48 h
Description: as §1

HOP-92 = conditions: HOP-92, 10 μM, 48 h
Description: as §1

HCT-116 = conditions: HCT-116, 10 μM, 48 h
Description: as §1

K-562 = conditions: K-562, 10 μM, 48 h
Description: as §1

IGROV1 = conditions: IGROV1, 10 μM, 48 h
Description: as §1

HT29 = conditions: HT29, 10 μM, 48 h
Description: as §1

HCT-15 = conditions: HCT-15, 10 μM, 48 h
Description: as §1

SK-MEL-5 = conditions: SK-MEL-5, 10 μM, 48 h
Description: as §1

SK-OV-3 = conditions: SK-OV-3, 10 μM, 48 h
Description: as §1

MCF7 = conditions: MCF7, 10 μM, 48 h
Description: as §1

SN12C = conditions: 10 μM, 48 h
Description: as §1

SR = conditions: 10 μM, 48 h
Description: as §1

UACC-62 = conditions: UACC-62, 10 μM, 48 h
Description: as §1

786-0 = conditions: 786-0, 10 μM, 48 h
Description: as §1

MDA-MB-468 = conditions: MDA-MB-468, 10 μM, 48 h
Description: as §1

ACHN = conditions: 10 μM, 48 h
Description: as §1

SF-268 = conditions: SF-268, 10 μM, 48 h
Description: as §1

A498 = conditions: A498, 10 μM, 48 h
Description: as §1

Row | SMILES | Growth Percent (SF-295) | Growth Percent (HOP-62) | Growth Percent (COLO 205) | Growth Percent (DU-145) | Growth Percent (MALME-3M) | Growth Percent (MDA-MB-435) | Growth Percent (SW-620) | Growth Percent (U251) | Growth Percent (SNB-19) | Growth Percent (UACC-257) | Growth Percent (SF-539) | Growth Percent (RXF 393) | Growth Percent (HCC-2998) | Growth Percent (SK-MEL-28) | Growth Percent (RPMI-8226) | Growth Percent (OVCAR-4) | Growth Percent (PC-3) | Growth Percent (EKVX) | Growth Percent (T-47D) | Growth Percent (OVCAR-8) | further results
1 | CC(=O)O[C@H]1CC[C@]2(C)[C@H]3CC[C@@H]4[C@H]5[C@H](C)[C@@]6(C)OC[C@]5(CC[C@@]4(C)[C@]3(C)CC[C@H]2C1(C)C)CC6C(C)=O (stereo partly drawn) [Compound 1] | 96.73% | 100.79% | 71.47% | 99.41% | 81.27% | 83.22% | 68.02% | 77.27% | 88.73% | 84.73% | 82.82% | 89.49% | 92.22% | 80.73% | 47.53% | 75.77% | 48.79% | 91.35% | 74.66% | 92.52% | Growth Percent (HL-60(TB)): 39.32%; Growth Percent (MOLT-4): 42.52%; Growth Percent (A549/ATCC): 88.63%; Growth Percent (HOP-92): 70.21%; Growth Percent (HCT-116): 41.92%; Growth Percent (K-562): 39.40%; Growth Percent (IGROV1): 51.77%; Growth Percent (HT29): 80.13%; Growth Percent (HCT-15): 38.30%; Growth Percent (SK-MEL-5): 47.27%; Growth Percent (SK-OV-3): 98.97%; Growth Percent (MCF7): 56.74%; Growth Percent (SN12C): 88.79%; Growth Percent (SR): 62.46%; Growth Percent (UACC-62): 49.11%; Growth Percent (786-0): 97.17%; Growth Percent (MDA-MB-468): 57.26%; Growth Percent (ACHN): 86.11%; Growth Percent (SF-268): 97.23%
2 | C[C@H]1[C@@H]2[C@H]3CC[C@@H]4[C@@]5(C)CC[C@H](O)C(C)(C)[C@@H]5CC[C@@]4(C)[C@]3(C)CC[C@]23CO[C@@]1(C)C(C(=O)/C=C/c1cccnc1)C3 (stereo partly drawn) [Compound 4] | 79.88% | 81.73% | 56.27% | 73.94% | 54.41% | 34.50% | 32.25% | 58.63% | 71.61% | 49.29% | 77.76% | 75.20% | 69.92% | 66.23% | 9.55% | 49.03% | 21.26% | 101.00% | 30.20% | 35.05% | Growth Percent (A498): 72.89%; Growth Percent (HL-60(TB)): 47.50%; Growth Percent (MOLT-4): 25.21%; Growth Percent (A549/ATCC): 57.76%; Growth Percent (HOP-92): 79.10%; Growth Percent (HCT-116): 14.40%; Growth Percent (K-562): 17.96%; Growth Percent (IGROV1): 80.59%; Growth Percent (HT29): 99.49%; Growth Percent (HCT-15): 38.53%; Growth Percent (SK-MEL-5): 37.02%; Growth Percent (SK-OV-3): 77.76%; Growth Percent (MCF7): 23.65%; Growth Percent (SN12C): 62.68%; Growth Percent (UACC-62): 41.49%; Growth Percent (786-0): 63.59%; Growth Percent (MDA-MB-468): 20.53%; Growth Percent (ACHN): 41.58%; Growth Percent (SF-268): 81.93%
3 | C[C@H]1[C@@H]2[C@H]3CC[C@@H]4[C@@]5(C)CC[C@H](O)C(C)(C)[C@@H]5CC[C@@]4(C)[C@]3(C)CC[C@]23CO[C@@]1(C)[C@@H](C(=O)/C=C/c1ccco1)C3 [Compound 5, 3β-Hydroxy-21-[3-(2E-furyl)-prop-2-en-1-one]-20β,28-epoxy-18α,19βH-ursane] | 109.70% | 104.25% | −2.30% | 102.22% | −11.31% | 17.83% | 97.06% | 69.38% | 75.34% | −8.91% | 99.66% | 109.55% | 104.00% | 36.66% | 105.93% | 111.19% | 92.69% | 104.96% | 84.80% | 99.33% | Growth Percent (A498): 96.19%; Growth Percent (A549/ATCC): 103.89%; Growth Percent (HOP-92): 65.36%; Growth Percent (HCT-116): 100.13%; Growth Percent (IGROV1): 107.89%; Growth Percent (HT29): 98.06%; Growth Percent (HCT-15): 105.61%; Growth Percent (SK-MEL-5): 8.55%; Growth Percent (SK-OV-3): 102.58%; Growth Percent (MCF7): 101.23%; Growth Percent (SN12C): 100.53%; Growth Percent (UACC-62): 7.16%; Growth Percent (786-0): 103.94%; Growth Percent (MDA-MB-468): 19.35%; Growth Percent (ACHN): 44.33%; Growth Percent (SF-268): 96.31%
